In ChEMBL document CHEMBL2073839, “Heterologous expression and functional characterization of a mouse renal organic anion transporter in mammalian cells” (J Biol Chem, 1999):

Legend:
Format in all cases: functional, cell-based
[1] = molecular target: T1, Solute carrier family 22 member 6 (Mus musculus, UniProt Q8VC69); assay: TP_TRANSPORTER: inhibition of PAH uptake (PAH: 20 uM, Semustine: 300 uM) in OAT-expressing COS-7 cells; conditions: monkey, cos-7, 300 µM
T1 sequence (Q8VC69 whole entry): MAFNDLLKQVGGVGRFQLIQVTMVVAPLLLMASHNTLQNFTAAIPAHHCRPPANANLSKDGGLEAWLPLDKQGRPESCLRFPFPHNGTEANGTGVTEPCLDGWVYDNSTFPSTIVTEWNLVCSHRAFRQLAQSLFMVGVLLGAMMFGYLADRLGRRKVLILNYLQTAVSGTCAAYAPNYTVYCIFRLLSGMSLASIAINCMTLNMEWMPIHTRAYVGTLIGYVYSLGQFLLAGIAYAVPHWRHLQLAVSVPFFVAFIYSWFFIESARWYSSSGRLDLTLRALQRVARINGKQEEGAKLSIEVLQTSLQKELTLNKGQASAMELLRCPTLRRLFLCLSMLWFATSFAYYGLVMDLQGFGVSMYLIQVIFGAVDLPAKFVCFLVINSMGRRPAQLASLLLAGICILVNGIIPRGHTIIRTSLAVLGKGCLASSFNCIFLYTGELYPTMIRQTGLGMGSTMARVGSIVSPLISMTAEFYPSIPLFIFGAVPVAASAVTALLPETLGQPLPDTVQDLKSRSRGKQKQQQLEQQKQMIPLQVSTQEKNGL

[2] = molecular target: T1, Solute carrier family 22 member 6; assay: TP_TRANSPORTER: inhibition of PAH uptake (PAH: 20 uM, Folic acid: 1000 uM) in OAT-expressing COS-7 cells; conditions: monkey, cos-7, 1000 µM
[3] = molecular target: T1, Solute carrier family 22 member 6; assay: TP_TRANSPORTER: inhibition of PAH uptake (PAH: 20 uM, Carprofen: 1000 uM) in OAT-expressing COS-7 cells; conditions: monkey, cos-7, 1000 µM
[4] = molecular target: T1, Solute carrier family 22 member 6; assay: TP_TRANSPORTER: inhibition of PAH uptake (PAH: 20 uM, Diclofenac: 1000 uM) in OAT-expressing COS-7 cells; conditions: monkey, cos-7, 1000 µM
[5] = molecular target: T1, Solute carrier family 22 member 6; assay: TP_TRANSPORTER: inhibition of PAH uptake (PAH: 20 uM, Captopril: 1000 uM) in OAT-expressing COS-7 cells; conditions: monkey, cos-7, 1000 µM
[6] = molecular target: T1, Solute carrier family 22 member 6; assay: TP_TRANSPORTER: inhibition of PAH uptake (PAH: 20 uM, Riboflavin: 1000 uM) in OAT-expressing COS-7 cells; conditions: monkey, cos-7, 1000 µM
[7] = molecular target: T1, Solute carrier family 22 member 6; assay: TP_TRANSPORTER: inhibition of PAH uptake (PAH: 20 uM, Pantothenic acid: 1000 uM) in OAT-expressing COS-7 cells; conditions: monkey, cos-7, 1000 µM
[8] = molecular target: T1, Solute carrier family 22 member 6; assay: TP_TRANSPORTER: inhibition of PAH uptake (PAH: 20 uM, Enalapril: 1000 uM) in OAT-expressing COS-7 cells; conditions: monkey, cos-7, 1000 µM
[9] = molecular target: T1, Solute carrier family 22 member 6; assay: TP_TRANSPORTER: inhibition of PAH uptake (PAH: 20 uM, alpha-KG: 1000 uM) in OAT-expressing COS-7 cells; conditions: monkey, cos-7, 1000 µM
[10] = molecular target: T1, Solute carrier family 22 member 6; assay: TP_TRANSPORTER: inhibition of PAH uptake (PAH: 20 uM, Sulindac: 1000 uM) in OAT-expressing COS-7 cells; conditions: monkey, cos-7, 1000 µM
[11] = molecular target: T1, Solute carrier family 22 member 6; assay: TP_TRANSPORTER: inhibition of PAH uptake (PAH: 20 uM, Indomethacin: 1000 uM) in OAT-expressing COS-7 cells; conditions: monkey, cos-7, 1000 µM

CC1CCC(NC(=O)N(CCCl)N=O)CC1 (stereo unspecified) [SEMUSTINE]
Activity [1]: inhibitor [(at a rough estimate) 35 % of control]

Nc1nc2ncc(CNc3ccc(C(=O)N[C@@H](CCC(=O)O)C(=O)O)cc3)nc2c(=O)[nH]1 [FOLIC ACID]
Activity [2]: inhibitor [(at a rough estimate) 55 % of control]

CC(C(=O)O)c1ccc2c(c1)[nH]c1ccc(Cl)cc12 (stereo unspecified) [CARPROFEN]
Activity [3]: inhibitor [(at a rough estimate) 5 % of control]

O=C(O)Cc1ccccc1Nc1c(Cl)cccc1Cl [DICLOFENAC]
Activity [4]: inhibitor [(at a rough estimate) 5 % of control]

C[C@H](CS)C(=O)N1CCC[C@H]1C(=O)O [CAPTOPRIL]
Activity [5]: inhibitor [(at a rough estimate) 50 % of control]

Cc1cc2nc3c(=O)[nH]c(=O)nc-3n(C[C@H](O)[C@H](O)[C@H](O)CO)c2cc1C [RIBOFLAVIN]
Activity [6]: inhibitor [(at a rough estimate) 40 % of control]

CC(C)(CO)[C@@H](O)C(=O)NCCC(=O)O [PANTOTHENIC ACID]
Activity [7]: inhibitor [(at a rough estimate) 60 % of control]

CCOC(=O)[C@H](CCc1ccccc1)N[C@@H](C)C(=O)N1CCC[C@H]1C(=O)O [ENALAPRIL]
Activity [8]: inhibitor [(at a rough estimate) 45 % of control]

O=C(O)CCC(=O)C(=O)O [ALPHA-KETOGLUTARIC ACID]
Activity [9]: inhibitor [(at a rough estimate) 10 % of control]

CC1=C(CC(=O)O)c2cc(F)ccc2/C1=C\c1ccc([S+](C)[O-])cc1 (stereo unspecified) [SULINDAC]
Activity [10]: inhibitor [(at a rough estimate) 5 % of control]

COc1ccc2c(c1)c(CC(=O)O)c(C)n2C(=O)c1ccc(Cl)cc1 [INDOMETHACIN]
Activity [11]: inhibitor [(at a rough estimate) 5 % of control]
